The values that follow come from ChEMBL document CHEMBL2203077, “Discovery of a novel series of 4-quinolone JNK inhibitors” (Bioorg Med Chem Lett, 2012).

Series [1] concerns the target T1, Mitogen-activated protein kinase 9 (Homo sapiens, UniProt P45984). In words: Inhibition of human JNK2 alpha2 using GST-tagged ATF2 as substrate and [gamma33P]ATP incubated for 10 mins prior to substrate addition measured after 30 mins by scintillation counting.
The target in series [2] is c-Jun N-terminal kinase, JNK (Homo sapiens, UniProt P45983+P53779+P45984). Put plainly: Inhibition of JNK in human SW1353 assessed as inhibition of TNFalpha-inuced c-Jun phosphorylation incubated for 30 mins prior to TNFalpha-induction measured after 20 mins by immunostaining method.
Series [3] has as its target T2, Mitogen-activated protein kinase 8 (Homo sapiens, UniProt P45983). Put plainly: Inhibition of human JNK1 alpha1 using GST-tagged ATF2 as substrate and [gamma33P]ATP incubated for 10 mins prior to substrate addition measured after 30 mins by scintillation counting.
The nature of series [4]: Solubility of the compound in phosphate buffer at pH 6.4. Type of series: physicochemical.
The subject of the next series is Caco-2. In words: Efflux ratio of permeability from apical to basal to basal to apical side of human Caco2 cells. The series is classed as ADME, cell-based.
In series [5] the target is T1, Mitogen-activated protein kinase 9. Put plainly: Binding affinity to T7-phage-tagged JNK2 by PCR analysis.
Series [6] has as its target Cyclin-dependent kinase 7 (Homo sapiens, UniProt P50613). Put plainly: Binding affinity to T7-phage-tagged CDK7 by PCR analysis.
Series [7] is described as follows: Clearance in rat at 3 mg/kg, iv. Type of series: ADME, organism-based. Further details: dose 3 mg/kg, route intravenous. Conditions: in vivo.
Series [8] has as its target Mitogen-activated protein kinase 12 (Homo sapiens, UniProt P53778). In words: Binding affinity to T7-phage-tagged P38gamma by PCR analysis.
For series [9], the target named is Serine/threonine-protein kinase 17A (Homo sapiens, UniProt Q9UEE5). In words: Binding affinity to T7-phage-tagged STK17A by PCR analysis.
Series [10] concerns Rattus norvegicus. In words: Antiasthatic activity in ovalbumin-sensitized Brown Norway rat assessed as inhibition of ovalbumin-induced neutrophil infiltration into BAL at 10 mg/kg, sc administered 24 hrs prior to ovalbumin-challenge measured after 4 hrs relative to vehicle-treated control. Type of series: functional. The following applies: route subcutaneous.
Series [11] concerns the target Ribosomal protein S6 kinase alpha-1 (Homo sapiens, UniProt Q15418). In words: Binding affinity to T7-phage-tagged RPS6KA1 by PCR analysis.
Series [12] can be described thus: Clearance in dog at 3 mg/kg, iv. The series is classed as ADME, organism-based, Canis lupus familiaris. Further details: dose 3 mg/kg, route intravenous. Conditions: in vivo.
Series [13] concerns the target Death-associated protein kinase 1 (Homo sapiens, UniProt P53355). Put plainly: Binding affinity to T7-phage-tagged DAPK1 by PCR analysis.
A short description of series [14]: Oral bioavailability in rat at 3 mg/kg administered using hydroxypropyl methylcellulose as vehicle. The following applies: in vivo. The series is classed as ADME, organism-based.
Series [15] in a line: […] bioavailability in ip dosed rat. The series is classed as ADME, organism-based. The following applies: in vivo, intraperitoneal.
Series [16] addresses Mitogen-activated protein kinase 13 (Homo sapiens, UniProt O15264). Put plainly: Binding affinity to T7-phage-tagged P38delta by PCR analysis.
Series [17] deals with Dual specificity mitogen-activated protein kinase kinase 4 (Homo sapiens, UniProt P45985). In words: Binding affinity to T7-phage-tagged MAP2K4 by PCR analysis.
Series [18] addresses Serine/threonine-protein kinase RIO2 (Homo sapiens, UniProt Q9BVS4). In words: Binding affinity to T7-phage-tagged RIOK2 by PCR analysis.
A short description of series [19]: Oral bioavailability in rat at 3 mg/kg administered using labrasol as vehicle. Type of series: ADME, organism-based. Conditions: in vivo.
In series [20] the test system is Rattus norvegicus. In words: Antiasthatic activity in ovalbumin-sensitized Brown Norway rat assessed as inhibition of ovalbumin-induced total white blood cells infiltration into BAL at 10 mg/kg, sc administered 24 hrs prior to ovalbumin-challenge measured after 4 hrs relative to vehicle-treated control. Type of series: functional. Conditions: route subcutaneous.

For series [21], the target named is T2, Mitogen-activated protein kinase 8. Put plainly: Binding affinity to T7-phage-tagged JNK1 by PCR analysis.
Series [22] concerns the target Inhibitor of nuclear factor kappa-B kinase subunit beta (Homo sapiens, UniProt O14920). Put plainly: Binding affinity to T7-phage-tagged IKKbeta by PCR analysis.
Series [23] concerns the target Death-associated protein kinase 3 (Homo sapiens, UniProt O43293). In words: Binding affinity to T7-phage-tagged DAPK3 by PCR analysis.
Series [24] can be described thus: Half life in rat at 3 mg/kg, iv. The series is classed as ADME, organism-based. Further details: dose 3 mg/kg, route intravenous. The following applies: in vivo.
The target of series [25] is Mitogen-activated protein kinase 15 (Homo sapiens, UniProt Q8TD08). Put plainly: Binding affinity to T7-phage-tagged MAPK15 by PCR analysis.
The target in series [26] is Interleukin-1 receptor-associated kinase 1 (Homo sapiens, UniProt P51617). In words: Binding affinity to T7-phage-tagged IRAK1 by PCR analysis.
A short description of series [27]: Oral bioavailability in dog at 3 mg/kg administered using hydroxypropyl methylcellulose as vehicle. Conditions: in vivo. Type of series: ADME, organism-based, Canis lupus familiaris.
In series [28] the target is Death-associated protein kinase 2 (Homo sapiens, UniProt Q9UIK4). Put plainly: Binding affinity to T7-phage-tagged DAPK2 by PCR analysis.
Series [29] deals with Myosin light chain kinase family member 4 (Homo sapiens, UniProt Q86YV6). Put plainly: Binding affinity to T7-phage-tagged SgK085 by PCR analysis.
The nature of series [30]: Half life in dog at 3 mg/kg, iv. The arrangement: dose 3 mg/kg, route intravenous. The series is classed as ADME, organism-based, Canis lupus familiaris. Conditions: in vivo.
The target of series [31] is Mitogen-activated protein kinase 7 (Homo sapiens, UniProt Q13164). Put plainly: Binding affinity to T7-phage-tagged MAPK7 by PCR analysis.
The target of series [32] is Serine/threonine-protein kinase DCLK3 (Homo sapiens, UniProt Q9C098). Put plainly: Binding affinity to T7-phage-tagged DCAMKL3 by PCR analysis.

Molecules are shown by their SMILES. Values after ≈ are worked out from the molar mass of the structure shown. Where only a bound is given, the exact number is not on record here.

T1 sequence (P45984 whole entry): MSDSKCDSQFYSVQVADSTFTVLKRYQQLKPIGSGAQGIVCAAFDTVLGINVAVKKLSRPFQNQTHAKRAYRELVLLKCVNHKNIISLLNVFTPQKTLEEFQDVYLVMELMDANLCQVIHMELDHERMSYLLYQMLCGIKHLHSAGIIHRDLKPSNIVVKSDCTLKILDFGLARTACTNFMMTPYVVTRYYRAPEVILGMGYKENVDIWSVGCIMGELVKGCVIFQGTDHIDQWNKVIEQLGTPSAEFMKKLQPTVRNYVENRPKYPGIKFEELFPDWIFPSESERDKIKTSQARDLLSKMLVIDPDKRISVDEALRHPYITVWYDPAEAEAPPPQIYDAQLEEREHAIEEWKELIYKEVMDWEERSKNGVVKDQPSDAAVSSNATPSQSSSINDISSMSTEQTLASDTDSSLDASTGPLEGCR
T2 sequence (P45983 whole entry): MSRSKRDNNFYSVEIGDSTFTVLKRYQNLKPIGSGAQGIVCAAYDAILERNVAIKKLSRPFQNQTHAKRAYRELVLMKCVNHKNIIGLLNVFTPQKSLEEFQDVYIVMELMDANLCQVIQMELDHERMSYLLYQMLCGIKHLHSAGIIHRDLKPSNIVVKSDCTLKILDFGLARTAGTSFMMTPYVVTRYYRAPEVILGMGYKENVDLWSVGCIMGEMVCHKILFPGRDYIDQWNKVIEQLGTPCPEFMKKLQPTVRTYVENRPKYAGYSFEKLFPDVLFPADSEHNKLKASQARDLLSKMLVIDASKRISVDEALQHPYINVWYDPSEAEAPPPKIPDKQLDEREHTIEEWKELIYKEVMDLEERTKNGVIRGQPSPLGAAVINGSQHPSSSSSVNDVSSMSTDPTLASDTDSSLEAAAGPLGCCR
Sequence of Death-associated protein kinase 1 (P53355 whole entry): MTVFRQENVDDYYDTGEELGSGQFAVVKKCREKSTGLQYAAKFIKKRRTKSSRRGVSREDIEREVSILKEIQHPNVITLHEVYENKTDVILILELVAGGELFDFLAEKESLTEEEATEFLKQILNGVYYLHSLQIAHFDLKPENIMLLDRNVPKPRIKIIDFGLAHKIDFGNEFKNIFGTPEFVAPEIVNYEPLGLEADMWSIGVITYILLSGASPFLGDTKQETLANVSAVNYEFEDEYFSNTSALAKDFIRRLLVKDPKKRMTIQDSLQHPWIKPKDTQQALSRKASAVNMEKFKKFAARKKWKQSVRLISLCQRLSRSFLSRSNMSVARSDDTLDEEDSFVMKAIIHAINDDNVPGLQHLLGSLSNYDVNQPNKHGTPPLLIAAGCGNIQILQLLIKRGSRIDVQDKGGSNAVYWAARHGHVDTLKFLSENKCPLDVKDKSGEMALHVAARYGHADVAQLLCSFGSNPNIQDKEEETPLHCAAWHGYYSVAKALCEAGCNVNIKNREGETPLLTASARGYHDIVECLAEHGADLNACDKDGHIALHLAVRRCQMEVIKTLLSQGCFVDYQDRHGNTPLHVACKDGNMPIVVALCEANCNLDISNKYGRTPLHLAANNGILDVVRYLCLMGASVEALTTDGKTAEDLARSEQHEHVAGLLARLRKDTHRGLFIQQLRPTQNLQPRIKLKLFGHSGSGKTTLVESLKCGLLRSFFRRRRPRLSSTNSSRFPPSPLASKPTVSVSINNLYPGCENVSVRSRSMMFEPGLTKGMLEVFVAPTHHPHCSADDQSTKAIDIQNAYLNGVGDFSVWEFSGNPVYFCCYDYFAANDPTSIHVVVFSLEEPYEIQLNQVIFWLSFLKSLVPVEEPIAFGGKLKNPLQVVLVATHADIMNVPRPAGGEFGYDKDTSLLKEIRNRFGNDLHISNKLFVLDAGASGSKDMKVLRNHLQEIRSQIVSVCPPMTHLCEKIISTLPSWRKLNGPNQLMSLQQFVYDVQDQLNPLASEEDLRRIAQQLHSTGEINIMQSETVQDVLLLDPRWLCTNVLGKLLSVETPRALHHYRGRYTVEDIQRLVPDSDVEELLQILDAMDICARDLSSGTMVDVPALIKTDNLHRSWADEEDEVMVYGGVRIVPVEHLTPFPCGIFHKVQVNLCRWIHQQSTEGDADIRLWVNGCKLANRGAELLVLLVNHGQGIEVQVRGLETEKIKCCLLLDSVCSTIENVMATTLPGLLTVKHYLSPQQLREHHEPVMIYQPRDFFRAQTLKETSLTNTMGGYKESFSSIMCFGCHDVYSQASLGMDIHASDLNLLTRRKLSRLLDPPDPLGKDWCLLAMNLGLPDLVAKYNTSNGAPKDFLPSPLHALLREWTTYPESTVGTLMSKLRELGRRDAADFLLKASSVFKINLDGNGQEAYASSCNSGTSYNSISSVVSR
Sequence of Mitogen-activated protein kinase 13 (O15264 whole entry): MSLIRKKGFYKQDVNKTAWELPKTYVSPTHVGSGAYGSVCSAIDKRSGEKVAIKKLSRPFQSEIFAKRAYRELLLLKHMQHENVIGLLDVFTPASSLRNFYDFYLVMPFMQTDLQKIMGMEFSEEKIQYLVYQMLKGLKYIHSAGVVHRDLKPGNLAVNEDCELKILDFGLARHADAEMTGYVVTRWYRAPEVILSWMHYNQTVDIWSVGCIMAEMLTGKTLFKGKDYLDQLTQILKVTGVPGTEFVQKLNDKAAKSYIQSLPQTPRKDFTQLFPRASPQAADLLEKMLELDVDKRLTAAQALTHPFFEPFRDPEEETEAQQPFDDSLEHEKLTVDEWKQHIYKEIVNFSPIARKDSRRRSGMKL
Sequence of Serine/threonine-protein kinase RIO2 (Q9BVS4 whole entry): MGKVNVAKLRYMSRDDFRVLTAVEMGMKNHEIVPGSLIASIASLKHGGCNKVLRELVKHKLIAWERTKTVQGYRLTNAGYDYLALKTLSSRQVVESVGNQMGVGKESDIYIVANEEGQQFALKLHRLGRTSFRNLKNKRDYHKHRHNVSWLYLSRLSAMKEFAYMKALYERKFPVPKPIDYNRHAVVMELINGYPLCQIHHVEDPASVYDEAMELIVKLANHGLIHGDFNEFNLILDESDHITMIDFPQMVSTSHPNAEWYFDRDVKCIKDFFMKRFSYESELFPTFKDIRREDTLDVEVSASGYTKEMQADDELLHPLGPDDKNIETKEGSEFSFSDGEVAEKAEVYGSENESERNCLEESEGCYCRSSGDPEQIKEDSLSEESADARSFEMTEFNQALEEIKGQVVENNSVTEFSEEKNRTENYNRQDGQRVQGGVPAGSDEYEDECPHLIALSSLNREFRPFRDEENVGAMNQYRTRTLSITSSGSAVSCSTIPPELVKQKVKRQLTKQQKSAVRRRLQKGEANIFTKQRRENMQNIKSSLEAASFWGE
Sequence of Dual specificity mitogen-activated protein kinase kinase 4 (P45985 whole entry): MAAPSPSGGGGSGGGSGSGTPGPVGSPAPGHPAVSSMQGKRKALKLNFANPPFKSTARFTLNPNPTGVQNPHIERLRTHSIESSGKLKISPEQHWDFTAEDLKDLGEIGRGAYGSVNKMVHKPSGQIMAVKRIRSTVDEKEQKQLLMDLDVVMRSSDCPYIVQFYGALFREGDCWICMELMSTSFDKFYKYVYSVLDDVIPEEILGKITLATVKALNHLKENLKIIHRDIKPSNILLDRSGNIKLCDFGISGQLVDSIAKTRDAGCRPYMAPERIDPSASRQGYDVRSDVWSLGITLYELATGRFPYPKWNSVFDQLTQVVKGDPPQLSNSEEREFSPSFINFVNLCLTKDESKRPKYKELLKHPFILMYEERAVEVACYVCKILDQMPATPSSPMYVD
Sequence of Interleukin-1 receptor-associated kinase 1 (P51617 whole entry): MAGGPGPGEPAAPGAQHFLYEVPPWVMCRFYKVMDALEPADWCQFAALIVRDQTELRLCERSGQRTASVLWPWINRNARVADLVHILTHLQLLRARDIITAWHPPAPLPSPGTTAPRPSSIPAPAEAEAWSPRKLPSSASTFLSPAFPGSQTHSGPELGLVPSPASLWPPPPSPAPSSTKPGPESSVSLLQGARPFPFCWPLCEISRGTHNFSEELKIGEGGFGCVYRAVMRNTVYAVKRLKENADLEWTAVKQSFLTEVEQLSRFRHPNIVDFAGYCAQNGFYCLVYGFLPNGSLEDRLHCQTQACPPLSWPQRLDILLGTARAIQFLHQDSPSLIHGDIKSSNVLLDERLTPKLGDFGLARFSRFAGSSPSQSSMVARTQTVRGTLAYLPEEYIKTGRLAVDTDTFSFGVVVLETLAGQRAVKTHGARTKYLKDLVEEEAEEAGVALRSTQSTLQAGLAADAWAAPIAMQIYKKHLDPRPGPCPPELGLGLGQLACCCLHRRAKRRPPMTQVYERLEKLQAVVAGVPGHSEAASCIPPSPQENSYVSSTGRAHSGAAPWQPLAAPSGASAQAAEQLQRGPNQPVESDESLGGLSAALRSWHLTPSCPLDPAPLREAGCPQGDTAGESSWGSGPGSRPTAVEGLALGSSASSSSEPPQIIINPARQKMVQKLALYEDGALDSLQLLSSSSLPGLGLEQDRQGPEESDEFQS
Sequence of Myosin light chain kinase family member 4 (Q86YV6 whole entry): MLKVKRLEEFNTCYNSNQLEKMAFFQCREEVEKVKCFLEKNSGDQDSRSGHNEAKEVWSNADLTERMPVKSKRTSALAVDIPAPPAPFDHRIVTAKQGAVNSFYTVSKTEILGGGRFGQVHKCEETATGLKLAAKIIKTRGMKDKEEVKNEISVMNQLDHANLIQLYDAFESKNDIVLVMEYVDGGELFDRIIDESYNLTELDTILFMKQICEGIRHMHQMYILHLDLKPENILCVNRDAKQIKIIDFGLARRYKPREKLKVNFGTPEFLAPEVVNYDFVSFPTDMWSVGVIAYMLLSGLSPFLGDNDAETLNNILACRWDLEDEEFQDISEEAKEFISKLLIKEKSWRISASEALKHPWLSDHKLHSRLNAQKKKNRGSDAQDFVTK

With `COC(=O)c1c(CN2CCC(S(C)(=O)=O)CC2)c(=O)c2ccc(C(F)(F)F)nc2n1-c1ccccc1`, the concentration for half-maximal inhibition (IC50) in [1] worked out at 290 nM; in series [2] it was 4300 nM.
`COC(=O)c1c(Cc2ccc(S(C)(=O)=O)cc2)c(=O)c2ccc(C)nc2n1-c1cccc(N)c1`: the half-inhibitory concentration (IC50) worked out at 32 nM in [1], 860 nM in [2] and 14 nM in series [3].
Consider `COC(=O)c1c(CN2CCOCC2)c(=O)c2ccc(F)cc2n1-c1ccccc1`, for which the figures for the IC50 in series [1] and in series [3] were 900 nM and 114 nM, respectively.
Turning to `COC(=O)c1c(Cc2ccc(C(=O)NCCO)cc2)c(=O)c2ccc(C(F)(F)F)nc2n1-c1ccccc1`, the values for the IC50 in series [1], in series [2] and in [3] were 176 nM, 4300 nM and 80 nM, respectively.
As to `COC(=O)c1c(CN2CC[C@H](S(C)(=O)=O)C2)c(=O)c2ccc(F)cc2n1-c1ccccc1`, the results for the IC50 in series [1] and in [3] were 535 nM and 53 nM, respectively.
For `COC(=O)c1c(Cc2ccccc2)c(=O)c2ccc(Cl)cc2n1-c1ccccc1` the same measures were 960 nM and 370 nM.
For `CCNC(=O)c1ccc(Cc2c(C(=O)OC)n(-c3ccccc3)c3cc(Cl)ccc3c2=O)cc1` the same measures were 94 nM and 38 nM.
`COC(=O)c1c(Cc2ccc(S(=O)(=O)N3CCNCC3)cc2)c(=O)c2ccc(Cl)cc2n1-c1ccccc1`: the solubility in series [4] came out at 23 µg/mL (≈ 41.7 µM). Further, the Ratio in the series with Caco-2 was 2. Moreover, the figures for the IC50 in [1], in series [2] and in series [3] were 50 nM, 1000 nM and 30 nM, respectively.
Take `O=c1c2ccc(Cl)cc2n(-c2ccccc2)c(=O)n1Cc1ccccc1`: the IC50 in series [1] was 3800 nM; in series [3], 2300 nM.
The matching figures for `COC(=O)c1c(CN2CC[C@@H](S(C)(=O)=O)C2)c(=O)c2ccc(F)cc2n1-c1ccccc1`: 1310 nM and 130 nM.
As for `COC(=O)c1c(Cc2ccc(S(=O)(=O)CCO)cc2)c(=O)c2ccc(F)cc2n1-c1ccccc1`, the IC50 in series [1] is 219 nM; in series [2], 2500 nM; in series [3], 58 nM.
With `CCn1c(=O)c2ccccc2n(-c2ccccc2)c1=O`, the IC50 in series [1] was more than 20000 nM; in [3], 11000 nM.
With `COC(=O)c1c(Cc2ccc(S(=O)(=O)N3CCNCC3)cc2)c(=O)c2ccc(C)nc2n1-c1ccccc1`, the IC50 in [1] stood at 28 nM; in [2], 560 nM; in series [3], 18 nM.
Turning to `COC(=O)c1c(CN2CCC(S(C)(=O)=O)CC2)c(=O)c2ccc(C)nc2n1-c1ccccc1`, the IC50 was determined as 190 nM in [1] and 430 nM in series [2].
For `COC(=O)c1c(Cc2ccc(S(C)(=O)=O)cc2)c(=O)c2ccc(C(F)(F)F)nc2n1-c1ccccc1`, the figures for the IC50 in series [1], in series [2] and in series [3] were 220 nM, 2700 nM and 82 nM, respectively.
Take `COC(=O)c1c(CN2CCN(S(C)(=O)=O)CC2)c(=O)c2ccc(F)cc2n1-c1ccccc1`: the half-inhibitory concentration (IC50) came to 507 nM in [1] and 65 nM in series [3].
For `O=c1c2ccccc2n(-c2ccccc2)c(=O)n1Cc1ccccc1` the same measures were 9300 nM and 2800 nM.
Consider `COC(=O)c1c(Cc2ccc(C(=O)NCCO)cc2)c(=O)c2ccc(C)nc2n1-c1ccccc1`, for which the solubility in [4] is 78 µg/mL (≈ 165 µM). In the series with Caco-2, the Ratio is 15. Also, the half-inhibitory concentration (IC50) in [1] came to 64 nM; in [2] it was 4200 nM; in series [3] it was 30 nM.
As to `CCNC(=O)c1ccc(Cc2c(C(=O)OC)n(-c3ccccc3)c3nc(C)ccc3c2=O)cc1`, the results for the concentration for half-maximal inhibition (IC50) in series [1], in series [2] and in series [3] were 87 nM, 4700 nM and 45 nM, respectively.
The molecule `CNS(=O)(=O)c1ccc(Cc2c(C(=O)OC)n(-c3ccccc3)c3cc(Cl)ccc3c2=O)cc1` returned a half-inhibitory concentration (IC50) in [3] of 47 nM.
For the molecule `COC(=O)c1c(Cc2ccc(S(=O)(=O)N3CCNCC3)cc2)c(=O)c2ccc(F)cc2n1-c1ccccc1`, the solubility in series [4] is 37 µg/mL (≈ 69.1 µM). The figures for the IC50 in series [1], in series [2] and in series [3] were 70 nM, 1700 nM and 30 nM, respectively.
`COC(=O)c1c(CN2CCC(S(C)(=O)=O)CC2)c(=O)c2ccc(F)cc2n1-c1ccccc1` showed a solubility in series [4] of 34 µg/mL (≈ 72 µM). Also, in the series on Caco-2, the Ratio is on record as 2. In addition, the concentration for half-maximal inhibition (IC50) in series [1] was 140 nM; in series [2] it was 830 nM; in series [3] it was 23 nM.
Turning to `COC(=O)c1c(Cc2ccc(C(=O)NCCO)cc2)c(=O)c2ccc(Cl)cc2n1-c1ccccc1`, the Kd in [5] was 170 nM; in [6] it was more than 10000 nM; in series [8], more than 10000 nM; in series [9], more than 10000 nM; in series [11], more than 10000 nM; in series [13] it was more than 10000 nM. Moreover, the Kd is more than 10000 nM in series [16]; more than 10000 nM in series [17]; more than 10000 nM in series [18]; 62 nM in series [21]; more than 10000 nM in series [22]; more than 10000 nM in series [23]. In addition, the Kd in series [25], in series [26], in series [28], in [29], in [31] and in [32] was more than 10000 nM throughout. The solubility in series [4] was 8.5 µg/mL (≈ 17.3 µM). The values for the clearance in [7] and in series [12] were 25 mL/min/kg and 3.4 mL/min/kg, respectively. For the same molecule, the inhibition in vivo at 10 mg/kg with Rattus norvegicus [10] amounted to 55%; with Rattus norvegicus [20], 40%. For the same molecule, the Ratio with Caco-2 turned out to be 7. The bioavailability in series [14] was found to be 6%; in series [15], 100%; in series [19], 43%; in series [27] it was 40%. Besides, the IC50 in series [1] came to 170 nM; in series [2], 3000 nM; in series [3], 62 nM. Moreover, the results for the half-life in series [24] and in series [30] were 1 h and 2.5 h, respectively.
